Experimental data reported in patent publication US12116358B2, “Substituted indoles and methods of use thereof” (EPIZYME, INC., priority 2018, dated 2024).
Like-named read-outs stand apart in the source and are kept apart here.

Experiments:
[1] = target: T1, SETD2(1434-1711) (Homo sapiens, UniProt Q9BYW2); experiment: SETD2 (1434-1711) assay; assay type: biochemical; conditions: read-out: SETD2 (1434-1711)
T1 construct: SETD2 (1434-1711) Assay; catalogue N/A
T1 sequence (Q9BYW2 1434-1711): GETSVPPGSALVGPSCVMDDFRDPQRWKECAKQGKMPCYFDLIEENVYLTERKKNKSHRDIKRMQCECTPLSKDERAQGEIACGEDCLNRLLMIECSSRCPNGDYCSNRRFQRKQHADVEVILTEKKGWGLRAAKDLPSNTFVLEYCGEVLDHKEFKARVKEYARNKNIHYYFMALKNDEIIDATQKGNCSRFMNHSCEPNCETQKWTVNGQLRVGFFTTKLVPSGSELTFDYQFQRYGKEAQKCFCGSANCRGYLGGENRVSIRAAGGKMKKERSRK

[2] = tested on: H3K36me3 in A549 cells; experiment: In-Cell Western (ICW) assay of SETD2 inhibitors (A549 assay); assay type: cell-based, human
How it was run: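 A549 cells seeded at 4,000/well onto compound and incubated 3 days at 37° C. Methanol-fixed cells stained overnight at 4° C with anti-H3K36me3 (1:1000), then IRDye 800CW secondary with DRAQ5 DNA counterstain. Plates read by Licor imaging at 700 and 800 channels.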

[3] = A549 cells, read-out: SETD2 A549
[4] = Homo sapiens, A549 cells, read-out: SETD2 A549

SMILES | IC50 [1] [nM] | IC50 [2, 3] [nM] | IC50 [2, 4] [nM] | IC50 ([2]; Homo sapiens, A549, read-out: SETD2 A549) [nM]
CNC(=O)CN1CCN(C2CCC[C@@H](NC(=O)c3cc4c(F)ccc(C)c4[nH]3)C2)CC1 (some centres unmarked) [compound 858] | 400 | > 2000 |  | 
Cc1ccc(F)c2cc(C(=O)N[C@H]3CCC[C@H](N4CCCOCC4)C3)[nH]c12 [compound 362] | 1400 |  | > 2000 | 
Cc1ccc(F)c2cc(C(=O)Nc3cccc(-c4ncno4)c3)[nH]c12 [compound 296] | 100 |  | 1100 | 
Cc1cccnc1C(Cc1cnn(CC2CC2)c1)NC(=O)c1cc2c(F)ccc(C)c2[nH]1 (centres unmarked) [compound 141] | 40 |  | 300 | 
Cc1ccc(F)c2cc(C(=O)Nc3ccnc(N4CCN(C)CC4)c3)[nH]c12 [Cpd. No. 340, 4-fluoro-7-methyl-N-(2-(4-methylpiperazin-1-yl)pyridin-4-yl)-1H-indole-2-carboxamide] | 200 |  |  | 1700
Cc1ccc(F)c2cc(C(=O)NC3CCCC(N4CCN(C5CCOC5)C(=O)C4)C3)[nH]c12 (centres unmarked) [compound 974] | 2600 | > 2000 |  | 
Cc1ccc(F)c2cc(C(=O)Nc3cccc(N4CCC(N(C)CCF)C4)c3)[nH]c12 (centres unmarked) [compound 97] | 40 | 200 |  | 
Cc1ccc(F)c2cc(C(=O)Nc3cccc([C@H]4CC[C@H](N(C)C)CC4)c3)[nH]c12 [compound 68] | 6 | 200 |  | 
Cc1ccc(F)c2cc(C(=O)Nc3cc(F)cc([C@H]4CC[C@H](N5CCOCC5)CC4)c3)[nH]c12 [compound 353] | 100 | > 2000 |  | 
Cc1cn(Cc2cnc(C(NC(=O)c3cc4c(F)ccc(C)c4[nH]3)C3CC3)c(C)c2)c(C)n1 (centres unmarked) [compound 317] | 100 |  | 1400 | 
Cc1ccc(F)c2cc(C(=O)Nc3cccc(N4CC[C@H](N(C)C)[C@H](C)C4)c3)[nH]c12 [compound 111] | 8 | 200 |  | 
Cc1ccc(F)c2cc(C(=O)Nc3cccc(N4CC[C@@H](N(C)C)C[C@@H]4C)c3)[nH]c12 [compound 303] | 60 |  | 1200 | 
CCC(=O)N1CCN([C@H]2CCC[C@@H](NC(=O)c3cc4c(F)ccc(C)c4[nH]3)C2)CC1C(F)(F)F (some centres unmarked) [compound 1113] | 10 |  | 10 | 
Cc1ccc(NC(=O)c2cc3c(F)ccc(C)c3[nH]2)cc1N1CCN(C)CC1 [compound 270] | 50 |  | 800 | 
Cc1ccc(F)c2cc(C(=O)Nc3cc(F)cc(N4CCOC(CCO)C4)c3)[nH]c12 (centres unmarked) [compound 24] | 20 | 60 |  | 
Cc1ccc(F)c2cc(C(=O)Nc3cccc(N4CCC(CO)(CO)CC4)c3)[nH]c12 [compound 103] | 30 | 200 |  | 
CC(=O)N1CCCC12CCN(c1cc(F)cc(NC(=O)c3cc4c(F)ccc(C)c4[nH]3)c1)CC2 [compound 104] | 30 | 200 |  | 
Cc1ccc(F)c2cc(C(=O)Nc3cccc(N4CCOC(C)C4)c3)[nH]c12 (centres unmarked) [compound 129] | 60 |  | 300 | 
Cc1ccc(F)c2cc(C(=O)N[C@@H]3CCC[C@H](N4CCC(N(C)C)C4=O)C3)[nH]c12 (some centres unmarked) [compound 1002] | 1200 |  | 1800 | 
Cc1ccc(F)c2cc(C(=O)Nc3cccc(C4CCCCN4)c3)[nH]c12 (centres unmarked) [compound 438] | 300 |  | 4900 | 
Cc1ccc(F)c2cc(C(=O)Nc3cccc(-c4cnco4)c3)[nH]c12 [compound 108] | 60 |  | 200 | 
CC(=O)N1CC2CCC(C1)N2[C@@H]1CCC[C@@H](NC(=O)c2cc3c(F)ccc(C)c3[nH]2)C1 [compound 953] | 3000 |  | > 2000 | 
CCC(=O)N1CCN([C@@H]2CCC[C@@H](NC(=O)c3cc4c(F)ccc(C)c4[nH]3)C2)CC1 [compound 840] | 900 | > 2000 |  | 
CC(=O)N1CCCN([C@@H]2CCC[C@@H](NC(=O)c3cc4c(F)ccc(C)c4[nH]3)C2)CC1 [compound 980] | 900 |  | > 2000 | 
Cc1ccc(F)c2cc(C(=O)Nc3cccc(N4CCC(N(C)C)C4)c3)[nH]c12 (centres unmarked) [compound 59] | 10 | 100 |  | 

SMILES | IC50 [1] [nM] | IC50 [2, 3] [nM] | IC50 [2, 4] [nM] | IC50 ([2]; Homo sapiens, A549, read-out: SETD2 A549) [nM]
Cc1ccc(F)c2cc(C(=O)Nc3cc(F)cc(N4CCC(N(C)CCF)C4)c3)[nH]c12 (centres unmarked) [compound 47] | 10 | 100 |  | 
Cc1ccc(F)c2cc(C(=O)NC3CCCC(N4CCN(C(=O)CO)C(C(F)(F)F)C4)C3)[nH]c12 (centres unmarked) [compound 1117] | 30 | 10 |  | 
Cc1ccc(F)c2cc(C(=O)Nc3cc(F)cc(N4CCOC(CO)C4)c3)[nH]c12 (centres unmarked) [compound 48] | 20 | 100 |  | 
Cc1ccc(F)c2cc(C(=O)N[C@@H]3CCC[C@H](N4CCCN(C)C(=O)C4)C3)[nH]c12 [compound 887] | 100 |  | 300 | 
Cc1cc(CC(=O)O)cnc1C(NC(=O)c1cc2c(F)ccc(C)c2[nH]1)C1CC1 (centres unmarked) [compound 542] | 2400 |  | > 25000 | 
Cc1ccc(F)c2cc(C(=O)Nc3cccc(-c4ccn[nH]4)c3)[nH]c12 [compound 322] | 500 |  | 1500 | 
Cc1cccnc1C(C)NC(=O)c1cc2cccc(C)c2[nH]1 (centres unmarked) [compound 480] | 7000 |  | 9500 | 
Cc1ccc(F)c2cc(C(=O)N[C@@H]3CCC[C@@H](c4cccnc4)C3)[nH]c12 [compound 902] | 4200 |  | > 2000 | 
Cc1ccc(F)c2cc(C(=O)Nc3cccc(-c4ccccn4)c3)[nH]c12 [compound 285] | 40 |  | 1000 | 
CNC1CCN(c2cccc(NC(=O)c3cc4c(F)ccc(C)c4[nH]3)c2)C1 (centres unmarked) [compound 128] | 10 |  | 300 | 
CCN(CC)Cc1cccc(NC(=O)c2cc3cccc(C)c3[nH]2)c1 [compound 486] | 1800 |  | 10800 | 
Cc1ccc(F)c2cc(C(=O)Nc3cccc(N4CC5CCC(C4)C5N(C)C)c3)[nH]c12 (centres unmarked) [compound 436] | 300 | 4700 |  | 
Cc1cccnc1C(CN1CCOCC1)NC(=O)c1cc2cccc(C)c2[nH]1 (centres unmarked) [compound 489] | 7900 |  | 11800 | 
Cc1ccc(F)c2cc(C(=O)Nc3cccc(N4CC[C@@H](N(C)C)[C@@H](C)C4)c3)[nH]c12 [compound 202] | 20 | 400 |  | 
Cc1ccc(F)c2cc(C(=O)Nc3cc(N4CCN(C)CC4)c4cnccc4c3)[nH]c12 [compound 401] | 30 | 2400 |  | 
Cc1ccc(F)c2cc(C(=O)N[C@H]3CCCN(C4CCN(C(=O)CN(C)C)CC4)C3)[nH]c12 [compound 892] | > 10000 |  | > 2000 | 
Cc1cc2ccccc2nc1C(NC(=O)c1cc2cccc(C)c2[nH]1)C1CC1 (centres unmarked) [compound 472] | 900 | 8500 |  | 
Cc1ccc(F)c2cc(C(=O)NC3CCCC(N4CCn5c(nccc5=O)C4)C3)[nH]c12 (centres unmarked) [compound 1165] | 3500 | > 2000 |  | 
CC(=O)N1CCC(c2cccc(NC(=O)c3cc4c(F)ccc(C)c4[nH]3)c2)CC1 [compound 45] | 30 |  | 100 | 
Cc1ccc(F)c2cc(C(=O)Nc3cccc(N4CCC(CN(C)C)CC4)c3)[nH]c12 [compound 117] | 20 | 200 |  | 
CCN(C1CCN(C2CCCC(NC(=O)c3cc4c(F)ccc(C)c4[nH]3)C2)C1)S(C)(=O)=O (centres unmarked) [compound 1132] | 2300 | > 2000 |  | 
Cc1ccc(F)c2cc(C(=O)Nc3cccc(N4CCCS4(=O)=O)c3)[nH]c12 [compound 125] | 80 |  | 300 | 
Cc1ccc(F)c2cc(C(=O)Nc3cnn(C4CCN(C)CC4)c3)[nH]c12 [compound 569] | 14000 |  | > 25000 | 
CC(=O)N1CC2CN(C3CCCC(NC(=O)c4cc5c(F)ccc(C)c5[nH]4)C3)CC2C1 (centres unmarked) [compound 1177] | 30 | 300 |  | 
